These results are taken from patent US20180344715A1, “WNT/BETA-CATENIN SIGNAL TRANSDUCTION INHIBITORS AND THEIR USE IN TREATMENT OR PREVENTION OF DISEASES AND CONDITIONS LINKED WITH SAID TRANSDUCTION” (BERGEN TEKNOLOGIOVERFORING AS, priority 2015, published 2018).

Structures are written as SMILES.

One assay deals with Wnt target genes. Description: RT-PCR of Wnt target genes in 293FT cells. As to conditions: 24 hours. The assay is classed as cell-based, human. From the text:
Reverse transcription (RT) and real-time quantitative PCR (qPCR) were done as previously described (Ke, X. S. et al., 2011, Exp Cell Res 317, 234-247). For qPCR using TagMan Universal PCR Master Mix (Life technologies, 4304437), TagMan assays used for human AXIN2 (Hs00610344_m1), LEF1 (Hs01547250_m1), BMP4 (Hs03676628_s1), CTNNB1 (Hs01076483_m1), VEGFR1 (Hs01052961_m1), MED23 (Hs00606608_m1), SHPRH (Hs00542737_m1) and ACTB1 (Hs99999903_m1) were obtained from Life technologies. For RT-PCR using RT^2 SYBR Green/ROX PCR Master Mix (QIAGEN, 330520), primer oligos were made by Eurogentec (Liege, Belgium).

The target in the next assay is T1, SHPRH (Homo sapiens, UniProt Q149N8).
T1 construct: endogenous in cells; host or cells: SW480
T1 sequence (Q149N8 whole entry): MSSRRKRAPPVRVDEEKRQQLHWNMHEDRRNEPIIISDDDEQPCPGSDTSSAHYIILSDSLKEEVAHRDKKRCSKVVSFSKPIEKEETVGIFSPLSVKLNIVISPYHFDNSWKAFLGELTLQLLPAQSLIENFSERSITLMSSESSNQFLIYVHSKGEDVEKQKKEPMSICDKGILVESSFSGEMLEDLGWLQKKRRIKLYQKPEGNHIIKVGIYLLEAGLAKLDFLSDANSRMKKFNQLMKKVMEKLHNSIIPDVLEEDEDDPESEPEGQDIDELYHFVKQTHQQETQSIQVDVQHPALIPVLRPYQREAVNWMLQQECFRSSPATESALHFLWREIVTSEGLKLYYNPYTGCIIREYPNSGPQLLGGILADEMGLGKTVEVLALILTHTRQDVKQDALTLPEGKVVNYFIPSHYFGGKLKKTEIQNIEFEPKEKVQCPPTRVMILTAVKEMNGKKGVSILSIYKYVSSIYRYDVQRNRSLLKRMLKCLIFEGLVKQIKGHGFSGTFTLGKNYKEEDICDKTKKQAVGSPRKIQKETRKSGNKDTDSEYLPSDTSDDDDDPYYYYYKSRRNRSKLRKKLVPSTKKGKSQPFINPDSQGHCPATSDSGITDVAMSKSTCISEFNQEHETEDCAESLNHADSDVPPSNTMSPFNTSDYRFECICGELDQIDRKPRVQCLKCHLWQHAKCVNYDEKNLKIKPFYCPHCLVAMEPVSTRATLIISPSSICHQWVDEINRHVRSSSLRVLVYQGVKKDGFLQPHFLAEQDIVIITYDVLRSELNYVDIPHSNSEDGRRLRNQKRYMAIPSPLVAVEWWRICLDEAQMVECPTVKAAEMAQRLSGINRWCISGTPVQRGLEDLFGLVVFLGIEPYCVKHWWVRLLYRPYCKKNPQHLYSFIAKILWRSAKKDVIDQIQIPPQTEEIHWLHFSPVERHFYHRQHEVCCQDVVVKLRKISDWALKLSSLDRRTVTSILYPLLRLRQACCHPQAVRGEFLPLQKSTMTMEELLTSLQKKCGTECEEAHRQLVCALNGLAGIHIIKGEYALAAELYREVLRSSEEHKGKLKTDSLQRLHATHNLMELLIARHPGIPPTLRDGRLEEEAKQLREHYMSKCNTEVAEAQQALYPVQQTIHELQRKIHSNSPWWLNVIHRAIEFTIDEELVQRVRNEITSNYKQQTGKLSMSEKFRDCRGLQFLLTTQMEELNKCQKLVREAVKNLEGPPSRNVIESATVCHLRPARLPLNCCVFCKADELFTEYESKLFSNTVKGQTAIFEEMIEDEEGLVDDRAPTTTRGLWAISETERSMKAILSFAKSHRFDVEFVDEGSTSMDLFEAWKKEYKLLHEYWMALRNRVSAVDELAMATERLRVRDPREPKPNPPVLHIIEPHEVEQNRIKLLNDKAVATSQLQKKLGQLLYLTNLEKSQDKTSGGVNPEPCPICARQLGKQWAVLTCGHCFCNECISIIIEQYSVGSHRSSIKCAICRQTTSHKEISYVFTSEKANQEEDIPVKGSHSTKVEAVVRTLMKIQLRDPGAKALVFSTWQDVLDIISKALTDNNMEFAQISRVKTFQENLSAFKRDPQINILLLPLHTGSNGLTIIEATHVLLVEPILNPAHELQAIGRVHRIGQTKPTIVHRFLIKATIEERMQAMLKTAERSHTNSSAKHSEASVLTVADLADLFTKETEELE
The experiment in a line: Cellular thermal shift assay (CETSA), SHPRH. The assay is classed as binding. To be noted: SW480, 10 μM. The method, then:
(§1) CETSA in intact cells was performed according to the protocol previously described (Martinez Molina, D. et al., 2013, Science 341, 84-87). Briefly, SW480 cells were seeded equally in 2 T75 flasks and allowed to reach 80% confluence one day after. […] After trypsinization and PBS wash, cells were resuspended in 450 μl PBS containing freshly added protease inhibitors and equally divided between 7 tubes. Cells in each tube were heated at indicated temperatures for 3 minutes and kept at room temperature for 3 minutes. Heated cells were lysed by 3 cycles of freezing in liquid nitrogen (1 minute) and thawing in room temperature water (1 minute). The cell lysates were centrifuged at 20,000 g for 20 minutes at 4° C. The soluble fractions were isolated for Western blotting analysis.

Assay [1] has as its system Apc (VilCre^ER Apc^fl/fl) intestinal organoids. Description: Apc mutant intestinal organoid culture. The assay is classed as cell-based, mouse. To be noted: 7 days. From the text: Mouse intestinal Apc (VilCre^ER Apc^fl/fl) organoids were obtained from Owen J. Sansom's laboratory at the Beatson Institute for Cancer Research, Glasgow, UK. The culture protocol has been described previously (14). Briefly, Apc mutant organoids were suspended in Growth Factor Reduced Matrigel (catalog no. 356231; Corning) and cultured in Advanced DMEM/F12 (catalog no. 12634-028; Invitrogen) containing 1% B-27 supplement (50×), minus vitamin A (catalog no. 12587-010; Invitrogen) and 0.1% BSA. Organoids were seeded in 24-well plates at a density of 70-100 organoids/50 μL Matrigel in each well. […] One week later organoids were imaged using the Cytation 5 Cell Imaging Multi-Mode Reader (BioTek Instruments, Inc.).

In a further assay the target is T2, MED23 (Homo sapiens, UniProt Q9ULK4).
T2 construct: endogenous in cells; host or cells: SW480
T2 sequence (Q9ULK4 1-1368): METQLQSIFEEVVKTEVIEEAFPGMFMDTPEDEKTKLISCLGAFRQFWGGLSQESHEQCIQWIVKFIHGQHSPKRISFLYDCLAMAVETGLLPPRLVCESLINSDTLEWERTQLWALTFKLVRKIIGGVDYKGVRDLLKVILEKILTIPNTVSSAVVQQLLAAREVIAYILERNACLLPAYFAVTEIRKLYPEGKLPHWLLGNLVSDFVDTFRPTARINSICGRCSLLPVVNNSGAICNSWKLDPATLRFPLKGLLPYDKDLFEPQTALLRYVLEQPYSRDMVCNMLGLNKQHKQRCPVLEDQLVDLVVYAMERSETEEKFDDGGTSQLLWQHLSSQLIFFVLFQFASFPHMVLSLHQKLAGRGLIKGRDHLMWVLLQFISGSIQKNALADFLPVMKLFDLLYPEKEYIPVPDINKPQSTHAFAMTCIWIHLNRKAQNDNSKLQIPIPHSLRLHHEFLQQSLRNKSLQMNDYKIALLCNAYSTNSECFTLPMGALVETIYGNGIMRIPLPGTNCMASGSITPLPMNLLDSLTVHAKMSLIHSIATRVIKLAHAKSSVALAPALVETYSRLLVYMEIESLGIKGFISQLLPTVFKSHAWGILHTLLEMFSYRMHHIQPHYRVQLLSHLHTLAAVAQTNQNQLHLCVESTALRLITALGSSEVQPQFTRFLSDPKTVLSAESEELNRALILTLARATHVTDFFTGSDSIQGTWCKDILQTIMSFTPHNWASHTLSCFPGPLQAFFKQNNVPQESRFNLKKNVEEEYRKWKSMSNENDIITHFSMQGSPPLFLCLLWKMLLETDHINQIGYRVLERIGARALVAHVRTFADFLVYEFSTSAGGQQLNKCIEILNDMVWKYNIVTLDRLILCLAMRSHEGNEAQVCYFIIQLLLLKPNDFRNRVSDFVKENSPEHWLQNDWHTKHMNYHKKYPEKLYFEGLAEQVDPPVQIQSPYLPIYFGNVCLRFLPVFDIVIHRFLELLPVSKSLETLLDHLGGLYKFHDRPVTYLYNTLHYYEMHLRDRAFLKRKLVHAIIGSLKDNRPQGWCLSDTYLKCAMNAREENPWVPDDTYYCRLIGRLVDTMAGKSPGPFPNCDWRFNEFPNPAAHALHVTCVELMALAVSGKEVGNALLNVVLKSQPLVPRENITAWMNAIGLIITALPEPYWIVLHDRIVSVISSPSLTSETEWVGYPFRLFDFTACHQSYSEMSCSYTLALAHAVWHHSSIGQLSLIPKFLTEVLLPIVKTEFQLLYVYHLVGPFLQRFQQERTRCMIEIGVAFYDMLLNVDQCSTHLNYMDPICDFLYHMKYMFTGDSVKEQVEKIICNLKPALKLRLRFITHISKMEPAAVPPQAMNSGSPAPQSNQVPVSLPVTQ
Description: Cellular thermal shift assay (CETSA), MED23. To be noted: SW480, 10 μM. The assay is classed as binding. The method, then: as §1

The next assay concerns β-catenin. Description: Immunofluorescence staining of β-catenin in SW480 cells. The assay is classed as cell-based. To be noted: SW480, 5 μM, 24 hours.

Description for β-catenin: Cells were seeded singly on 12 mm glass coverslips in 24-well plates. At the second day, cells were washed with PBS, fixed in 4% PBS buffered paraformaldehyde at room temperature for 20 minutes, permeabilized in 0.5% Triton X-100 for 10 minutes, blocked in 100 mM glycine for 5 minutes and with PBS wash between each step. After blocking with 0.5% BSA/PBS for 15 minutes, cells were incubated with primary antibodies (β-catenin, ab16051, 1:1000, Abcam; Ki67, ab16667, clone SP6, 1:50, Abcam) in 0.5% BSA/PBS for 1 hour at room temperature. The FITC-labelled secondary antibody (Southern Biotech, 4050-02) was added for 45 minutes at room temperature. Coverslips were mounted in SlowFade® Diamond Antifade Mountant with DAPI (Life Technologies, S36964) on glass slides. Images were captured using the Qcapture Suite software with a Qimaging Exi Blue camera attached to a Leica DMRBE microscope.

Take `CNC(=O)c1ccccc1Sc1ccc2c(/C=C/c3ccccn3)n[nH]c2c1` [axitinib, N-Methyl-2-[[3-[(E)-2-pyridin-2-ylethenyl]-1H-indazol-6-yl]sulfanyl]benzamide]: in the assay on Wnt target genes, the “mRNA levels of Wnt target genes” value is on record as “decreases”. In addition, the “direct binding in intact living cells” value at SHPRH and at MED23 was “confirmed” throughout. Moreover, the “growth of Apc-deleted murine organoids” value in assay [1] was “strongly inhibited”. Also, the “cells with unequal distribution of nuclear β-catenin (β-catenin ACD)” value with β-catenin is roughly 19%.
